# From article PMC7661967, “Magnetic Resonance Molecular Imaging of Extradomain B Fibronectin Improves Imaging of Pancreatic Cancer Tumor Xenografts” (Frontiers in Oncology, 2020)
# No end group written: not given here.
# Legend:
# [1] = T1 and T2 relaxivity measurement at 3T; assay type: physicochemical
# Protocol: The T1 and T2 values of MT218 and Gd(HP-DO3A) solutions were determined using a 3T MRS 3000 scanner (MR Solutions, Guildford, UK). Solutions of MT218 were prepared at concentrations of 0, 0.25, 0.5, 1, and 2 mM in DPBS buffer (Gibco, Gaithersburg, MD). T1 values were measured using an inversion recovery-fast low angle shot (IR-FLASH) sequence (τ = 10 ms, TE = 4 ms, FA = 8°, echoes/frames = 128, FOV = 40 mm × 40 mm, slice thickness = 2 mm, number of averages = 1, time delay = 4,000 ms, sample period = 200, matrix = 256 × 128). T2 values were obtained using a multi-echo multi-slice (MEMS) sequence (TE = 15 ms, […], echoes = 10, FOV: 40 mm × 40 mm, slice thickness = 1 mm, number of averages = 1, matrix = 256 × 192). The r1 and r2 relaxivities were calculated from the slopes of 1/T1 and 1/T2 vs. Gd concentration plots, respectively.
# [2] = tested on: Capan-1 flank tumor xenografts; experiment: MRMI of Capan-1 flank tumor xenografts (7T); assay type: in vivo, human cells in female nu/nu mice
# Protocol: (§1) For flank xenograft models, 4 × 10^6 Capan-1 cells suspended in 100 μL of a 6 mg/mL Matrigel (Corning, Corning, NY) solution was injected subcutaneously into the flank of 8-week-old female nu/nu mice. The tumor bearing mice were imaged after tumor volumes exceeded 300 mm^3. For orthotopic intrapancreatic models, the pancreas of 4-week-old female nu/nu mice were surgically exposed via a ~10 mm incision in the left ventral abdomen and the application of gentle pressure to express the spleen and associated pancreatic tissue. 1 × 10^6 BxPC3-GFP-Luc or PANC-1-GFP-Luc cells suspended in 100 μL of a Matrigel solution (6 mg/mL) was injected into the pancreatic tissue using an insulin syringe with a 31G needle. Any leakage of cell suspension was lavaged with DPBS twice to prevent intraabdominal seeding PaCa cells. The peritoneal fascia was closed with absorbable stitches, and the dermis closed with stainless steel wound clips. Prior to imaging, growth of tumor was verified by bioluminescence imaging with intraperitoneal injection of d-luciferin on IVIS Spectrum system (Perkin Elmer, Waltham, MA).
# (§2) Flank tumor-bearing mice were anesthetized and a tail vein catheter inserted. MR image acquisition was performed on a 7T Biospin (Bruker, Billerica, MA) preclinical small animal scanner with a volume radiofrequency coil. Axial images were obtained using a multi-spin multi-echo (MSME) MRI sequence (500 ms TR, 8.1 ms TE, 90° FA, 4.50 cm × 4.50 cm FOV, 1.50 mm slice thickness, 16 slices, 2 averages, 200 × 200 matrix, 0.0225 × 0.0225 cm/pixel resolution). Contrast agents were injected at a dose of 0.1 mmol/kg (100 μL) via the tail vein catheter, followed by a saline flush. Images of the tumors were acquired before contrast and at various time points after contrast administration. Gd(HP-DO3A) was used as a control.
# (§3) Image files were exported and analyzed in Horus software. ROIs were drawn in the tumor, liver, kidney, and muscle. Muscle ROIs were taken from the muscle, with other structures (liver, kidney, tumor) identified after comparison with published images and comparison with anatomical landmarks or bioluminescent imaging. Pancreatic lesions were localized using the liver, kidney, and spleen as anatomical landmarks. […] Size of ROIs drawn for image analysis are summarized in Supplementary Table 1. The contrast-to-noise ratio of the tumor (CNR) was calculated using the following equation, where σnoise is the standard deviation of intensities from an ROI drawn outside of the mouse body:
# (§4) CNR=Mean IntensityTumor-Mean IntensityMuscle/σnoise.
# (§5) Image subtraction was performed on images adjusted to the same window and level in FIJI open-source software.
# (§6) Image contrast was reported as fold enhancement of contrast to noise ratio of post-contrast images over pre-contrast images using Fold Enhancement = CNRpost/CNRpre. Statistical analysis of CNR was performed in Minitab Express (Minitab Inc., State College, PA). One-way ANOVA with Fisher Individual Tests for Differences of Means post-hoc testing was performed to determine statistical significance between >2 means (p < 0.05). Student's T test was used to determine statistical significance between 2 means (p < 0.05).
# [3] = tested on: PANC-1-GFP-Luc intrapancreatic tumor xenografts; experiment: MRMI of PANC-1-GFP-Luc intrapancreatic tumor xenografts (3T); assay type: in vivo, human cells in female nu/nu mice
# Protocol: as §1
# Mice bearing intrapancreatic tumors were anesthetized and a tail vein catheter was inserted. Image acquisition was performed on a MR Solutions 3T MRS 3000 scanner with a mouse radiofrequency coil. Axial images were obtained using a Fast Spin Echo (FSE) MRI sequence (305 ms TR, 11 ms TE, 90° FA, 4 cm × 4 cm FOV, 1 mm slice thickness, 10 slices, echo train length = 4, echo spacing = 11 ms, 4 averages, 256 × 256 matrix, 0.0156 × […] cm/pixel resolution) with respiratory gating. Images were acquired before contrast and at different time points after contrast injection at a dose of 0.1 mmol/kg (100 μL). For competitive binding experiments, a 5:1 molar ratio of free ZD2 peptide to MT218 was injected in mice bearing intrapancreatic BxPC3 tumor xenografts (n = 3) at a dose of 0.1 mmol MT218/kg (100 μL). Images obtained on the MR Solutions 3T scanner were normalized using the Surscalereader.exe (MR Solutions, Guildford, UK) program supplied.
# as §3, §4, §5, §6
# [4] = Kidney CNR in contrast-enhanced MRI; assay type: in vivo, nu/nu mice; conditions: all tested mice, p > 0.05; BxPC3-GFP-Luc (n = 3) and PANC-1-GFP-Luc (n = 6) models
# Protocol: as §2
# (§7) Mice bearing intrapancreatic tumors were anesthetized and a tail vein catheter was inserted. Image acquisition was performed on a MR Solutions 3T MRS 3000 scanner with a mouse radiofrequency coil. […]
# (§8) Image files were exported and analyzed in Horus software. […] The contrast-to-noise ratio of the tumor (CNR) was calculated using the following equation, where σnoise is the standard deviation of intensities from an ROI drawn outside of the mouse body: […]
# [5] = Spleen CNR in contrast-enhanced MRI; assay type: in vivo, nu/nu mice; conditions: BxPC3-GFP-Luc intrapancreatic model (n = 3), p > 0.05
# Protocol: as §2, §7, §8
# [6] = cited from earlier work
# Description: (§9) ZD2 targeted MRI contrast agents have been developed and tested for MRMI of EDB-FN in aggressive breast cancer and prostate cancer models ([15], [16], [20]). The targeted contrast agent ZD2-N3-Gd(HP-DO3A) (MT218) was developed by conjugating ZD2 peptide to a clinical macrocyclic contrast agent Gd(HP-DO3A) ([16], [20]). […] The ...
# [7] = tested on: aggressive breast and prostate cancers; conditions: cited from earlier work
# Description: as §9
# [8] = 0.1 mmol/kg, 10 min post-injection, n = 6
substance,measurement,setting,value
"ZD2-N3-Gd(HP-DO3A) (TVRTSAD; also: conjugated via N3 to Gd(HP-DO3A) contrast agent, end not given here) [MT218, small molecular conjugate of ZD2 peptide to a macrocyclic clinical MRI contrast agent Gd(HP-DO3A)]",T1 relaxivity (r1),"[1]; 0-2 mM MT218 in DPBS buffer, IR-FLASH",6.07 ± 1.13 s⁻¹ mM⁻¹
same,T2 relaxivity (r2),"[1]; 0-2 mM MT218 in DPBS buffer, MEMS",8.20 ± 0.18 s⁻¹ mM⁻¹
same,T1 relaxivity relative to Gd(HP-DO3A),[1]; targeted agent vs corresponding clinical agent,~2 fold
same,contrast enhancement in tumor periphery,"[2]; 0.1 mmol/kg, 5 min post-injection, MT218 vs Gd(HP-DO3A)",Stronger contrast enhancement
same,maximum increase of tumor CNR (post/pre),"[2]; 0.1 mmol/kg, 15 min post-injection, MT218 n = 7",4.8 fold
same,contrast enhancement in tumor core,"[2]; 0.1 mmol/kg, after injection",gradually increased
same,"enhancement in tumor periphery, subtraction images","[2]; 0.1 mmol/kg, early time points (5–15 min post-contrast)",strong initial enhancement
same,"contrast enhancement throughout tumors, subtraction images","[2]; 0.1 mmol/kg, later time points (25–35 min) for MT218, all time points for Gd(HP-DO3A)",robust tumor contrast enhancement throughout the tumors
same,duration for which CNR increase maintained,"[2]; 0.1 mmol/kg, post-injection",at least 35 min
same,MT218 CNR relative to Gd(HP-DO3A) control,"[2]; Capan-1 flank, control Gd(HP-DO3A), p < 0.05",273%
same,CNR relative to clinical agent,"[2]; Capan-1 flank, vs Gd(HP-DO3A), p < 0.05",2.7 times
same,intratumoral CNR increase (post/pre),[3]; [8],approximately 3.9 fold
same,tumor contrast enhancement,[3]; [8],substantial contrast enhancement
same,"tumor signal enhancement, subtraction images",[3]; [8],substantial signal enhancement
same,MT218 CNR as percent of Gd(HP-DO3A) control,"[3]; PANC-1-GFP-Luc intrapancreatic, control Gd(HP-DO3A), p < 0.05",164%
same,CNR relative to clinical agent,"[3]; PANC-1-GFP-Luc intrapancreatic, vs Gd(HP-DO3A), p < 0.05",1.6 times
same,"kidney CNR, MT218 vs Gd(HP-DO3A)",[4],"No significant (n.s, p>0.05) difference in kidney CNR"
same,"spleen CNR, MT218 vs Gd(HP-DO3A)",[5],"No significant (n.s, p>0.05) difference in spleen CNR"
same,"T1 relaxivity compared with Gd(HP-DO3A), in words",[6],higher T1 relaxivity than Gd(HP-DO3A)
same,contrast enhancement,[7],superior contrast enhancement
